Measured values as given in BindingDB's records for doi:10.1021/acs.jmedchem.0c00182 (Inception Therapeutics, 2020).

Experiment: Inhibition of eIF4A1 in human HAP1 cells assessed as reduction in cell proliferation incubated for 72 hrs by CellTiter-Glo reagent based assay

Work on `COc1cc2c(c(OC)n1)[C@]1(O)[C@H](O)[C@H](CN(C)C)[C@@H](c3ccccc3)[C@]1(c1ccc(C#N)cc1)O2` [Zotatifin] yielded an IC50 of 6.3 nM.
